Assay results as given in the NIST ThermoML archive (doi:10.1016/j.fluid.2016.02.009).
Numbers after ± are expanded uncertainties.

Settings: Liquid, Vibrating tube method

What does the source list for CCCCOC [butyl methyl ether]?
mass density (283.15 K, 100 kPa): 755.88 ± 0.3 kg/m3; mass density (283.15 K, 5000 kPa): 760.82 ± 0.33 kg/m3; mass density (283.15 K, 10000 kPa): 765.42 ± 0.36 kg/m3; mass density (283.15 K, 15000 kPa): 769.77 ± 0.39 kg/m3; mass density (283.15 K, 20000 kPa): 773.91 ± 0.43 kg/m3; mass density (283.15 K, 25000 kPa): 777.86 ± 0.46 kg/m3; mass density (283.15 K, 30000 kPa): 781.65 ± 0.49 kg/m3; mass density (283.15 K, 35000 kPa): 785.29 ± 0.53 kg/m3; mass density (283.15 K, 40000 kPa): 788.8 ± 0.56 kg/m3; mass density (283.15 K, 45000 kPa): 792.18 ± 0.6 kg/m3; mass density (283.15 K, 50000 kPa): 795.45 ± 0.63 kg/m3; mass density (283.15 K, 55000 kPa): 798.61 ± 0.66 kg/m3; mass density (283.15 K, 60000 kPa): 801.68 ± 0.7 kg/m3; mass density (283.15 K, 65000 kPa): 804.67 ± 0.73 kg/m3; mass density (288.15 K, 100 kPa): 750.88 ± 0.3 kg/m3; mass density (288.15 K, 5000 kPa): 756.01 ± 0.33 kg/m3; mass density (288.15 K, 10000 kPa): 760.78 ± 0.36 kg/m3; mass density (288.15 K, 15000 kPa): 765.26 ± 0.4 kg/m3; mass density (288.15 K, 20000 kPa): 769.53 ± 0.43 kg/m3; mass density (288.15 K, 25000 kPa): 773.58 ± 0.46 kg/m3; mass density (288.15 K, 30000 kPa): 777.48 ± 0.5 kg/m3; mass density (288.15 K, 35000 kPa): 781.19 ± 0.53 kg/m3; mass density (288.15 K, 40000 kPa): 784.79 ± 0.57 kg/m3; mass density (288.15 K, 45000 kPa): 788.24 ± 0.61 kg/m3; mass density (288.15 K, 50000 kPa): 791.57 ± 0.64 kg/m3; mass density (288.15 K, 55000 kPa): 794.8 ± 0.67 kg/m3; mass density (288.15 K, 60000 kPa): 797.94 ± 0.7 kg/m3; mass density (288.15 K, 65000 kPa): 800.98 ± 0.74 kg/m3; mass density (293.15 K, 100 kPa): 745.85 ± 0.3 kg/m3; mass density (293.15 K, 5000 kPa): 751.18 ± 0.33 kg/m3; mass density (293.15 K, 10000 kPa): 756.08 ± 0.36 kg/m3; mass density (293.15 K, 15000 kPa): 760.71 ± 0.4 kg/m3; mass density (293.15 K, 20000 kPa): 765.09 ± 0.43 kg/m3; mass density (293.15 K, 25000 kPa): 769.27 ± 0.47 kg/m3; mass density (293.15 K, 30000 kPa): 773.26 ± 0.5 kg/m3; mass density (293.15 K, 35000 kPa): 777.09 ± 0.54 kg/m3; mass density (293.15 K, 40000 kPa): 780.75 ± 0.58 kg/m3; mass density (293.15 K, 45000 kPa): 784.3 ± 0.61 kg/m3; mass density (293.15 K, 50000 kPa): 787.7 ± 0.65 kg/m3; mass density (293.15 K, 55000 kPa): 791 ± 0.68 kg/m3; mass density (293.15 K, 60000 kPa): 794.21 ± 0.71 kg/m3; mass density (293.15 K, 65000 kPa): 797.33 ± 0.75 kg/m3; mass density (298.15 K, 100 kPa): 740.78 ± 0.3 kg/m3; mass density (298.15 K, 5000 kPa): 746.29 ± 0.33 kg/m3; mass density (298.15 K, 10000 kPa): 751.36 ± 0.37 kg/m3; mass density (298.15 K, 15000 kPa): 756.15 ± 0.4 kg/m3; mass density (298.15 K, 20000 kPa): 760.68 ± 0.44 kg/m3; mass density (298.15 K, 25000 kPa): 764.97 ± 0.47 kg/m3; mass density (298.15 K, 30000 kPa): 769.08 ± 0.51 kg/m3; mass density (298.15 K, 35000 kPa): 772.99 ± 0.55 kg/m3; mass density (298.15 K, 40000 kPa): 776.76 ± 0.58 kg/m3; mass density (298.15 K, 45000 kPa): 780.38 ± 0.62 kg/m3; mass density (298.15 K, 50000 kPa): 783.87 ± 0.65 kg/m3; mass density (298.15 K, 55000 kPa): 787.24 ± 0.69 kg/m3; mass density (298.15 K, 60000 kPa): 790.51 ± 0.72 kg/m3; mass density (298.15 K, 65000 kPa): 793.65 ± 0.76 kg/m3; mass density (303.15 K, 100 kPa): 735.68 ± 0.3 kg/m3; mass density (303.15 K, 5000 kPa): 741.39 ± 0.33 kg/m3; mass density (303.15 K, 10000 kPa): 746.66 ± 0.37 kg/m3; mass density (303.15 K, 15000 kPa): 751.6 ± 0.4 kg/m3; mass density (303.15 K, 20000 kPa): 756.25 ± 0.44 kg/m3; mass density (303.15 K, 25000 kPa): 760.68 ± 0.47 kg/m3; mass density (303.15 K, 30000 kPa): 764.89 ± 0.51 kg/m3; mass density (303.15 K, 35000 kPa): 768.9 ± 0.55 kg/m3; mass density (303.15 K, 40000 kPa): 772.76 ± 0.59 kg/m3; mass density (303.15 K, 45000 kPa): 776.46 ± 0.63 kg/m3; mass density (303.15 K, 50000 kPa): 780.03 ± 0.66 kg/m3; mass density (303.15 K, 55000 kPa): 783.46 ± 0.7 kg/m3; mass density (303.15 K, 60000 kPa): 786.77 ± 0.73 kg/m3; mass density (303.15 K, 65000 kPa): 790 ± 0.76 kg/m3; mass density (308.15 K, 100 kPa): 730.53 ± 0.3 kg/m3; mass density (308.15 K, 5000 kPa): 736.43 ± 0.33 kg/m3; mass density (308.15 K, 10000 kPa): 741.88 ± 0.37 kg/m3; mass density (308.15 K, 15000 kPa): 746.98 ± 0.41 kg/m3; mass density (308.15 K, 20000 kPa): 751.8 ± 0.44 kg/m3; mass density (308.15 K, 25000 kPa): 756.35 ± 0.48 kg/m3; mass density (308.15 K, 30000 kPa): 760.67 ± 0.52 kg/m3; mass density (308.15 K, 35000 kPa): 764.79 ± 0.56 kg/m3; mass density (308.15 K, 40000 kPa): 768.74 ± 0.6 kg/m3; mass density (308.15 K, 45000 kPa): 772.53 ± 0.63 kg/m3; mass density (308.15 K, 50000 kPa): 776.18 ± 0.67 kg/m3; mass density (308.15 K, 55000 kPa): 779.69 ± 0.71 kg/m3; mass density (308.15 K, 60000 kPa): 783.07 ± 0.74 kg/m3; mass density (308.15 K, 65000 kPa): 786.36 ± 0.77 kg/m3; mass density (313.15 K, 100 kPa): 725.34 ± 0.3 kg/m3; mass density (313.15 K, 5000 kPa): 731.47 ± 0.33 kg/m3; mass density (313.15 K, 10000 kPa): 737.11 ± 0.37 kg/m3; mass density (313.15 K, 15000 kPa): 742.4 ± 0.41 kg/m3; mass density (313.15 K, 20000 kPa): 747.36 ± 0.45 kg/m3; mass density (313.15 K, 25000 kPa): 752.04 ± 0.48 kg/m3; mass density (313.15 K, 30000 kPa): 756.48 ± 0.52 kg/m3; mass density (313.15 K, 35000 kPa): 760.7 ± 0.56 kg/m3; mass density (313.15 K, 40000 kPa): 764.74 ± 0.6 kg/m3; mass density (313.15 K, 45000 kPa): 768.63 ± 0.64 kg/m3; mass density (313.15 K, 50000 kPa): 772.34 ± 0.68 kg/m3; mass density (313.15 K, 55000 kPa): 775.93 ± 0.71 kg/m3; mass density (313.15 K, 60000 kPa): 779.39 ± 0.75 kg/m3; mass density (313.15 K, 65000 kPa): 782.73 ± 0.78 kg/m3; mass density (318.15 K, 100 kPa): 720.1 ± 0.3 kg/m3; mass density (318.15 K, 5000 kPa): 726.46 ± 0.34 kg/m3; mass density (318.15 K, 10000 kPa): 732.32 ± 0.37 kg/m3; mass density (318.15 K, 15000 kPa): 737.77 ± 0.41 kg/m3; mass density (318.15 K, 20000 kPa): 742.89 ± 0.45 kg/m3; mass density (318.15 K, 25000 kPa): 747.69 ± 0.48 kg/m3; mass density (318.15 K, 30000 kPa): 752.27 ± 0.53 kg/m3; mass density (318.15 K, 35000 kPa): 756.62 ± 0.57 kg/m3; mass density (318.15 K, 40000 kPa): 760.76 ± 0.61 kg/m3; mass density (318.15 K, 45000 kPa): 764.73 ± 0.65 kg/m3; mass density (318.15 K, 50000 kPa): 768.51 ± 0.69 kg/m3; mass density (318.15 K, 55000 kPa): 772.16 ± 0.72 kg/m3; mass density (318.15 K, 60000 kPa): 775.71 ± 0.76 kg/m3; mass density (318.15 K, 65000 kPa): 779.13 ± 0.79 kg/m3; mass density (323.15 K, 100 kPa): 714.8 ± 0.3 kg/m3; mass density (323.15 K, 5000 kPa): 721.41 ± 0.34 kg/m3; mass density (323.15 K, 10000 kPa): 727.49 ± 0.38 kg/m3; mass density (323.15 K, 15000 kPa): 733.12 ± 0.41 kg/m3; mass density (323.15 K, 20000 kPa): 738.42 ± 0.45 kg/m3; mass density (323.15 K, 25000 kPa): 743.37 ± 0.49 kg/m3; mass density (323.15 K, 30000 kPa): 748.07 ± 0.53 kg/m3; mass density (323.15 K, 35000 kPa): 752.53 ± 0.57 kg/m3; mass density (323.15 K, 40000 kPa): 756.76 ± 0.62 kg/m3; mass density (323.15 K, 45000 kPa): 760.83 ± 0.66 kg/m3; mass density (323.15 K, 50000 kPa): 764.7 ± 0.69 kg/m3; mass density (323.15 K, 55000 kPa): 768.43 ± 0.73 kg/m3; mass density (323.15 K, 60000 kPa): 772.05 ± 0.77 kg/m3; mass density (323.15 K, 65000 kPa): 775.54 ± 0.8 kg/m3; mass density (328.15 K, 100 kPa): 709.45 ± 0.3 kg/m3; mass density (328.15 K, 5000 kPa): 716.32 ± 0.34 kg/m3; mass density (328.15 K, 10000 kPa): 722.64 ± 0.38 kg/m3; mass density (328.15 K, 15000 kPa): 728.5 ± 0.42 kg/m3; mass density (328.15 K, 20000 kPa): 733.93 ± 0.45 kg/m3; mass density (328.15 K, 25000 kPa): 739.05 ± 0.49 kg/m3; mass density (328.15 K, 30000 kPa): 743.83 ± 0.54 kg/m3; mass density (328.15 K, 35000 kPa): 748.41 ± 0.58 kg/m3; mass density (328.15 K, 40000 kPa): 752.76 ± 0.62 kg/m3; mass density (328.15 K, 45000 kPa): 756.92 ± 0.66 kg/m3; mass density (328.15 K, 50000 kPa): 760.91 ± 0.7 kg/m3; mass density (328.15 K, 55000 kPa): 764.72 ± 0.74 kg/m3; mass density (328.15 K, 60000 kPa): 768.39 ± 0.78 kg/m3; mass density (328.15 K, 65000 kPa): 771.91 ± 0.81 kg/m3; mass density (333.15 K, 100 kPa): 704.04 ± 0.3 kg/m3; mass density (333.15 K, 5000 kPa): 711.19 ± 0.34 kg/m3; mass density (333.15 K, 10000 kPa): 717.74 ± 0.38 kg/m3; mass density (333.15 K, 15000 kPa): 723.77 ± 0.42 kg/m3; mass density (333.15 K, 20000 kPa): 729.38 ± 0.46 kg/m3; mass density (333.15 K, 25000 kPa): 734.64 ± 0.5 kg/m3; mass density (333.15 K, 30000 kPa): 739.61 ± 0.54 kg/m3; mass density (333.15 K, 35000 kPa): 744.31 ± 0.59 kg/m3; mass density (333.15 K, 40000 kPa): 748.78 ± 0.63 kg/m3; mass density (333.15 K, 45000 kPa): 753.01 ± 0.67 kg/m3; mass density (333.15 K, 50000 kPa): 757.06 ± 0.71 kg/m3; mass density (333.15 K, 55000 kPa): 760.97 ± 0.75 kg/m3; mass density (333.15 K, 60000 kPa): 764.71 ± 0.78 kg/m3; mass density (333.15 K, 65000 kPa): 768.34 ± 0.82 kg/m3
